The source of these data is US12319655B2, “RAF kinase inhibitors and methods of use thereof” (Deciphera Pharmaceuticals, LLC, priority 2021, dated 2025).

Experiment [1] deals with B-Raf kinase (SEQ. ID NO: 2) (Homo sapiens (Human), UniProt P15056). Nature of the experiment: Biochemical Assay for B-Raf (2). Conditions: Table J, biochemical assay (2); read-out: BRAF (2). As for the experimental part:
Biochemical Assay for B-Raf (2)
Activity of B-Raf kinase (SEQ. ID NO: 2) was determined spectroscopically using a coupled pyruvate kinase/lactate dehydrogenase assay that continuously monitors the ATP hydrolysis-dependent oxidation of NADH (e.g., Schindler et al., Science, 2000, 289, 1938-1942). Assays were conducted in 384-well plates (25 μL final volume) using 2 nM B-Raf (Sigma), 1.5 units pyruvate kinase, 2.1 units lactate dehydrogenase, 1 mM phosphoenol pyruvate, 0.7 mM NADH, 50 nM MEK (SignalChem), and 1 mM ATP in assay buffer (100 mM Tris, pH 7.5, 15 mM MgCl2, 0.5 mM DTT, 0.1% octyl-glucoside, 0.002% (w/v) BSA, and 0.002% Triton X-100). Inhibition of B-Raf was measured by adding serial diluted test compound (final assay concentration of 1% DMSO). A decrease in absorption at 340 nm was monitored hourly for 4 h at 30° C. on a multi-mode microplate reader (BioTek). The reaction rate was calculated using the 2 to 3 h time frame. The reaction rate at each concentration of compound was converted to percent inhibition using controls (i.e., reaction with no test compound and reaction with a known inhibitor) and IC50 values were calculated by fitting a four-parameter sigmoidal curve to the data using Prism (GraphPad software).

For experiment [2], the target named is B-Raf (V600E) (SEQ. ID NO: 4) kinase (Homo sapiens (Human), UniProt P15056, V600E). Put plainly: Biochemical Assay for B-Raf (V600E) (2). The conditions noted are these: Table J, BRAF V600E, biochemical assay (2); read-out: BRAF VE (2). The procedure:
Biochemical Assay for B-Raf (V600E) (2)
Activity of B-Raf (V600E) (SEQ. ID NO: 4) kinase was determined spectroscopically using a coupled pyruvate kinase/lactate dehydrogenase assay that continuously monitors the ATP hydrolysis-dependent oxidation of NADH (e.g., Schindler et al., Science, 2000, 289, 1938-1942). Assays were conducted in 384-well plates (25 μL final volume) using 0.5 nM B-Raf (deCode), 1.5 units pyruvate kinase, 2.1 units lactate dehydrogenase, 1 mM phosphoenol pyruvate, 0.7 mM NADH, 100 nM MEK (SignalChem), and 1 mM ATP in assay buffer (100 mM Tris, pH 7.5, 15 mM MgCl2, 0.5 mM DTT, 0.1% octyl-glucoside, 0.002% (w/v) BSA, and 0.002% Triton X-100). Inhibition of B-Raf (V600E) was measured by adding serial diluted test compound (final assay concentration of 1% DMSO). A decrease in absorption at 340 nm was monitored hourly for 4 h at 30° C. on a multi-mode microplate reader (BioTek). The reaction rate was calculated using the 3 to 4 h time frame. The reaction rate at each concentration of compound was converted to percent inhibition using controls (i.e., reaction with no test compound and reaction with a known inhibitor) and IC50 values were calculated by fitting a four-parameter sigmoidal curve to the data using Prism (GraphPad software).

B-Raf kinase (SEQ. ID NO: 2), sequence (P15056 416-766): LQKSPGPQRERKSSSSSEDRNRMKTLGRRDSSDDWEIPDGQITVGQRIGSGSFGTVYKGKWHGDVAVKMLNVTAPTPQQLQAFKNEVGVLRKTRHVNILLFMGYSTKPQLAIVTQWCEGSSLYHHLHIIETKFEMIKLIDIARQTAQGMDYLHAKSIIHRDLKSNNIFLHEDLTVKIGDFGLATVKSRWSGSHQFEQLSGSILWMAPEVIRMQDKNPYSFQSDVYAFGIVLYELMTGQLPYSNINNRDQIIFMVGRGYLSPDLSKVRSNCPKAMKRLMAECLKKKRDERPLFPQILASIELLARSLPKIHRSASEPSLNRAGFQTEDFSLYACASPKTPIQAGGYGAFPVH
B-Raf (V600E) (SEQ. ID NO: 4) kinase, sequence (P15056 416-766 V600E): as the sequence (P15056 416-766) above, with V185E counted along it

As for `CNC(=N)c1cc(-c2cc(-c3cc(NC(=O)c4ccnc(C(C)(C)F)c4)ccc3C)ccn2)ccn1` [Example 452], the IC50 in experiment [1] and in experiment [2] was ≤ 100 nM throughout.

With `CNC(=O)c1cc(-c2cncc(-c3cc(NC(=O)c4ccnc(C(C)C)c4)ccc3C)c2)ccn1` [Example 445], the IC50 in experiment [1] and in experiment [2] was ≤ 100 nM in each case.

Consider `CNC(=O)c1cc(-c2cc(-c3cc(NC(=O)c4ccnc(C(C)(C)F)c4)cc(F)c3F)ccn2)ccn1` [Example 478], for which the IC50 in experiment [1] is 100 to 500 nM; in experiment [2], ≤ 100 nM.

Turning to `CNC(=O)c1cc(-c2cc(-c3cc(NC(=O)c4ccnc(C(C)(C)F)c4)ccc3C)cnn2)ccn1` [Example 473], the results for the IC50 in experiment [1] and in experiment [2] were 100 to 500 nM and ≤ 100 nM, respectively.

Regarding `CNC(=O)c1cc(-c2cc(-c3cc(NC(=O)c4ccnc(C(C)(C)F)c4)cnc3C)ccn2)ccn1` [Example 444], the IC50 in experiment [1] is 100 to 500 nM; in experiment [2] it was ≤ 100 nM.

Take `CNC(=O)c1cc(-c2cc(-c3cc(NC(=O)c4ccnc(C(C)(C)F)c4)ccc3C(F)(F)F)ccn2)ccn1` [Example 471]: the IC50 in experiment [1] and in experiment [2] was 1000 to 10000 nM in each case.

Regarding `CNC(=O)c1cc(-c2cc(-c3cc(NC(=O)c4ccnc(C(C)C)c4)cnc3C)ccn2)ccn1` [Example 465], the IC50 in experiment [1] was 100 to 500 nM; in experiment [2], ≤ 100 nM.

`CNC(=O)c1cc(-c2cncc(-c3cc(NC(=O)c4ccnc(C(C)(C)C#N)c4)ccc3C)c2)ccn1` [Example 442]: the IC50 in experiment [1] and in experiment [2] was ≤ 100 nM throughout.

Regarding `Cc1ccc(NC(=O)c2ccnc(C(C)(C)F)c2)cc1-c1ccnc(-c2ccnc(C#N)c2)c1` [Example 447], the IC50 in experiment [1] and in experiment [2] was 100 to 500 nM each time.

Regarding `CNC(=O)c1cc(-c2cc(-c3cc(NC(=O)c4ccnc(C(C)(C)F)c4)ccc3C)cc(C)n2)ccn1` [Example 470], the IC50 was 100 to 500 nM in experiment [1] and ≤ 100 nM in experiment [2].

Take `CNC(=O)c1cc(-c2cc(-c3cc(F)cc(NC(=O)c4ccnc(C(C)(C)F)c4)c3F)ccn2)ccn1` [Example 475]: the IC50 in experiment [1] and in experiment [2] was 1000 to 10000 nM throughout.

In the case of `CNC(=O)c1cc(-c2cc(-c3cc(NC(=O)c4ccnc(C(C)(F)F)c4)ccc3C)ccn2)ccn1` [Example 441], the IC50 in experiment [1] and in experiment [2] was ≤ 100 nM throughout.

Take `Cc1ncc(NC(=O)c2ccnc(C(C)(C)F)c2)cc1-c1ccnc(-c2ccnc(NC(=O)C3CC3)c2)c1` [Example 454]: the IC50 in experiment [1] and in experiment [2] was ≤ 100 nM in each case.

Consider `Cc1cc(-c2cc(NC(=O)c3ccnc(C(C)(C)F)c3)ccc2C)cc(-c2ccnc(C#N)c2)n1` [Example 483], for which the IC50 in experiment [1] and in experiment [2] was 100 to 500 nM each time.

Take `CNC(=O)c1cc(-c2cc(-c3cc(NC(=O)c4ccnc(C(C)(C)F)c4)ccc3C)c(F)cn2)ccn1` [Example 469]: the IC50 in experiment [1] and in experiment [2] was ≤ 100 nM in each case.

As to `CNC(=O)c1cc(-c2cncc(-c3cc(NC(=O)c4ccnc(C(C)C)c4)ccc3C)c2)ncn1` [Example 446], the IC50 in experiment [1] and in experiment [2] was ≤ 100 nM in each case.

`CNC(=O)c1cc(-c2cc(-c3cc(NC(=O)c4ccnc(C(C)(C)F)c4)ccn3)ccn2)ccn1` [Example 481]: the IC50 in experiment [1] and in experiment [2] was 1000 to 10000 nM in each case.

With `CNC(=O)c1cc(-c2cc(-c3cc(NC(=O)c4ccnc(C(C)(C)F)c4)c(F)cc3F)ccn2)ccn1` [Example 482], the figures for the IC50 in experiment [1] and in experiment [2] were 100 to 500 nM and ≤ 100 nM, respectively.

Take `CNC(=O)c1cc(-c2cc(-c3cc(NC(=O)c4ccnc(C(C)(F)F)c4)cnc3C)ccn2)ccn1` [Example 463]: the IC50 in experiment [1] was 100 to 500 nM; in experiment [2], ≤ 100 nM.

Regarding `Cc1ncc(NC(=O)c2ccnc(C3(C#N)CC3)c2)cc1-c1ccnc(-c2ccnc(NC(=O)C3CC3)c2)c1` [Example 461], the IC50 in experiment [1] and in experiment [2] was ≤ 100 nM each time.

Take `CNC(=O)c1cc(-c2cc(-c3cc(NC(=O)c4ccnc(C5(C#N)CC5)c4)cnc3C)ccn2)ccn1` [Example 464]: the IC50 was 100 to 500 nM in experiment [1] and ≤ 100 nM in experiment [2].

Turning to `Cc1ccc(NC(=O)c2ccnc(C3(C#N)CC3)c2)cc1-c1ccnc(-c2ccnc(NC(=O)C3CC3)c2)c1` [Example 457], the IC50 in experiment [1] and in experiment [2] was ≤ 100 nM throughout.

For the molecule `Cc1ccc(NC(=O)c2ccnc(C(C)(C)F)c2)cc1-c1ccnc(-c2ccnc(C(N)=O)c2)c1` [Example 476], the IC50 in experiment [1] and in experiment [2] was ≤ 100 nM each time.

Take `Cc1ccc(NC(=O)c2ccnc(C(C)(F)F)c2)cc1-c1ccnc(-c2ccnc(NC(=O)C3CC3)c2)c1` [Example 459]: the IC50 in experiment [1] and in experiment [2] was ≤ 100 nM throughout.

Turning to `CNC(=O)c1cc(-c2cncc(-c3cc(NC(=O)c4ccnc(C(C)(F)F)c4)ccc3C)c2)ncn1` [Example 439], the IC50 in experiment [1] and in experiment [2] was ≤ 100 nM each time.

Consider `Cc1ncc(NC(=O)c2ccnc(C(C)C)c2)cc1-c1ccnc(-c2ccnc(NC(=O)C3CC3)c2)c1` [Example 468], for which the IC50 in experiment [1] and in experiment [2] was ≤ 100 nM each time.

Turning to `CNC(=O)c1cc(-c2cc(-c3cc(NC(=O)c4ccnc(C5CC5)c4)ccc3C)ccn2)ccn1` [Example 460], the IC50 in experiment [1] and in experiment [2] was ≤ 100 nM throughout.

For the molecule `Cc1ccc(NC(=O)c2ccnc(C(C)(C)F)c2)cc1-c1ccnc(-c2ccnc(C(=O)NCCO)c2)c1` [Example 448], the figures for the IC50 in experiment [1] and in experiment [2] were 100 to 500 nM and ≤ 100 nM, respectively.

In the case of `CNC(=O)c1cc(-c2cc(-c3cc(NC(=O)c4ccnc(C(C)(C)F)c4)ccc3F)ccn2)ccn1` [Example 479], the IC50 in experiment [1] and in experiment [2] was 100 to 500 nM throughout.

Consider `Cc1ncc(NC(=O)c2ccnc(C(C)(F)F)c2)cc1-c1ccnc(-c2ccnc(NC(=O)C3CC3)c2)c1` [Example 466], for which the IC50 in experiment [1] and in experiment [2] was ≤ 100 nM each time.

In the case of `CNC(=O)c1cc(-c2cc(-c3cc(NC(=O)c4ccnc(C(C)(C)F)c4)ccc3C)c(C)cn2)ccn1` [Example 472], the IC50 is 500 to 1000 nM in experiment [1] and ≤ 100 nM in experiment [2].

As for `CNC(=O)c1cc(-c2cc(-c3cc(NC(=O)c4cnnc(C(F)(F)F)c4)ccc3C)ccn2)ccn1` [Example 477], the IC50 in experiment [1] is ≤ 100 nM; in experiment [2], 100 to 500 nM.

In the case of `CNC(=O)c1cc(-c2cc(-c3cc(NC(=O)c4ccnc(C(C)(C)F)c4)ccc3C)ncn2)ccn1` [Example 474], the IC50 in experiment [1] and in experiment [2] was ≤ 100 nM each time.

Regarding `CNC(=O)c1cc(-c2cncc(-c3cc(NC(=O)c4ccnc(C(C)(F)F)c4)ccc3C)c2)ccn1` [Example 440], the IC50 in experiment [1] and in experiment [2] was ≤ 100 nM throughout.

Turning to `CNC(=O)c1cc(-c2cc(-c3cc(NC(=O)c4ccnc(C5CC5)c4)cnc3C)ccn2)ccn1` [Example 462], the IC50 in experiment [1] and in experiment [2] was 100 to 500 nM in each case.

Turning to `Cc1ccc(NC(=O)c2ccnc(C(C)C)c2)cc1-c1ccnc(-c2ccnc(NC(=O)C3CC3)c2)c1` [Example 467], the IC50 in experiment [1] and in experiment [2] was ≤ 100 nM each time.

In the case of `Cc1ccc(NC(=O)c2ccnc(C(C)(C)F)c2)cc1-c1ccnc(-c2ccnc(C(=O)NCC#N)c2)c1` [Example 451], the IC50 in experiment [1] and in experiment [2] was ≤ 100 nM in each case.

Consider `Cc1cc(-c2cc(NC(=O)c3ccnc(C(C)(C)F)c3)ccc2C)cc(-c2ccnc(C(N)=O)c2)n1` [Example 484], for which the IC50 in experiment [1] and in experiment [2] was ≤ 100 nM throughout.
